Test results as given in PMC6274350, “Design, Synthesis, and Cytotoxicity of 5-Fluoro-2-methyl-6-(4-aryl-piperazin-1-yl) Benzoxazoles” (Molecules, 2016).

System: not listed separately
Assay: CellTiter-Glo luminescent cell viability (cytotoxicity) assay on hepatocytes
Type: cell-based, human
Conditions: human; Liver cells, hepatocytes (HepaRG); 0.1 µM; 24 h; vs DMSO vehicle
Procedure: (§1) The cytotoxicity of prepared benzoxazoles (7a–j) and intermediates (6a–j and 9) were measured by applying the CellTiter-Glo® luminescent cell proliferation assay (G755A, Promega, Madison, WI, USA). This method permits the determination of viable cells numbers in the culture based on quantitation of the ATP present, which denotes the presence of metabolically active cells. In vitro cytotoxicity analysis was overall performed following the protocol as described in “Guidance Document on Using in Vitro Data to Estimate in Vivo Starting Doses for Acute Toxicity Based on Recommendations” [18]. Human A-549 cells are human lung cancer epithelial cells, which were chosen as the tumor model, whereas the HepaRG™ cell line is a classic hepatic cell line that retains many characteristics of primary human hepatocytes. HepaRG™ cells are terminally differentiated.
(§2) Human cell cultures: Hepatocytes (HepaRG^TM cells) were obtained from Life Technologies, and were cultivated in William’s E Medium (Gibco, Life Technologies, Waltham, MA, USA) and supplemented with 1x GlutaMAX™ plus 1x HepaRG^TM General Purpose Medium Supplement in 25-cm^2 or 75-cm^2 flasks (TPP, Trasadingen, Switzerland) at 37 °C and 5% CO2. Lung cancer epithelial cells A-549 were propagated in Epilife Medium (Gibco, Life Technologies; MEPICF) and combined with CaCl2 and 1x-growth-supplement containing penicillin and streptomycin (Gibco, Life Technologies). For sub-culturing, cells were split at a ratio of 1:4 to 1:8. For cryopreservation, cells were frozen in 10% DMSO in liquid nitrogen.
(§3) Human cytotoxicity assay: Human hepatocytes or human lung carcinoma cells were seeded into sterile black clear-bottomed polystyrene Corning® CellBind® 96-well plates (Munich, Germany) at a density of 20,000 cells/well after calculating cell numbers from trypsinized samples in a classical Neubauer Improved hemocytometer (VWR, Munich, Germany). The cells were grown for 24 h at 37 °C in a 5% CO2 atmosphere in Epilife medium (keratinocytes) or William′s E medium (hepatocytes). After a 24-h recovery period, media were removed from the wells by aspiration. The cells were then immediately exposed to the respective test compounds or reference antibiotics (prepared in advance in 100 µL of the same media) for 24 h 37 °C with 5% CO2. The concentration tested ranged from 0.1 µM to 500 µM (0.1 µM, 1 µM, 10 µM, 50 µM, 100 µM, 250 µM, and 500 µM) and was formulated as a 100× concentrated stock each, resulting in a final constant DMSO concentration of 1% per 100-µL sample volume. Test series were each performed in triplicate, and additionally included a vehicle reference (DMSO only) plus another internal control for evaluating overall assay performance. Additionally, cells were visually examined under a light microscope for any morphological abnormalities relative to the untreated cells. Subsequently, cell viability, as an indicator of potential cytotoxicity, was measured by applying the CellTiter-Glo® luminescent cell proliferation assay (G755A, Promega, Madison, WI, USA). This method permits the determination of the number of viable cells in culture based on quantitation of the ATP present, which denotes the presence of metabolically active cells. To this end, 100 µL (equal to the volume of culture medium) of the kit-provided CellTiter-Glo® reagent (reconstituted by transferring the thawed CellTiter-Glo® buffer to the lyophilized enzyme and substrate mixture) was directly added to each well with a repetitive dispensing pipette. The contents were then mixed for 2 min at room temperature on an orbital minishaker (IKA® MS3 digital, Staufen, Germany) at 450 rpm to induce efficient cell lysis, and then further incubated for 10 min at room temperature for stabilization of the resultant luminescent signal. […]

For `O=[N+]([O-])c1cc(F)c(N2CCN(c3ccc(O)cc3)CC2)cc1O` [Compound 6c, 4-Fluoro-5-[4-(4-hydroxy-phenyl)-piperazin-1-yl]-2-nitro-phenol], which viability at 24 h, 0.1 µM is on record?
The viability at 24 h, 0.1 µM was 95%.

With `COc1ccc(N2CCN(c3cc(O)c([N+](=O)[O-])cc3F)CC2)cc1` [Compound 6e, 4-Fluoro-5-[4-(4-methoxy-phenyl)-piperazin-1-yl]-2-nitro-phenol] as the compound, how does the viability at 24 h, 0.1 µM read?
Its viability at 24 h, 0.1 µM is 107%.

With `O=[N+]([O-])c1cc(F)c(N2CCN(c3ccc(Cl)c(Cl)c3)CC2)cc1O` [Compound 6j, 5-[4-(3,4-Dichloro-phenyl)-piperazin-1-yl]-4-fluoro-2-nitro-phenol] as the compound, how does the viability at 24 h, 0.1 µM read?
The viability at 24 h, 0.1 µM was 119%.

Same assay, conditions: human; Liver cells, hepatocytes (HepaRG); 1 µM; 24 h; vs DMSO vehicle

Which viability at 24 h, 1 µM does the source give for `O=[N+]([O-])c1cc(F)c(N2CCN(c3ccc(O)cc3)CC2)cc1O` [Compound 6c, 4-Fluoro-5-[4-(4-hydroxy-phenyl)-piperazin-1-yl]-2-nitro-phenol] here?
The viability at 24 h, 1 µM was 101%.

With `COc1ccc(N2CCN(c3cc(O)c([N+](=O)[O-])cc3F)CC2)cc1` [Compound 6e, 4-Fluoro-5-[4-(4-methoxy-phenyl)-piperazin-1-yl]-2-nitro-phenol] as the compound, how does the viability at 24 h, 1 µM read?
The viability at 24 h, 1 µM was 110%.

Which viability at 24 h, 1 µM does the source give for `O=[N+]([O-])c1cc(F)c(N2CCN(c3ccc(Cl)c(Cl)c3)CC2)cc1O` [Compound 6j, 5-[4-(3,4-Dichloro-phenyl)-piperazin-1-yl]-4-fluoro-2-nitro-phenol] here?
The viability at 24 h, 1 µM was 115%.

Same assay, conditions: human; Liver cells, hepatocytes (HepaRG); 10 µM; 24 h; vs DMSO vehicle

For `O=[N+]([O-])c1cc(F)c(N2CCN(c3ccc(O)cc3)CC2)cc1O` [Compound 6c, 4-Fluoro-5-[4-(4-hydroxy-phenyl)-piperazin-1-yl]-2-nitro-phenol], which viability at 24 h, 10 µM is on record?
The viability at 24 h, 10 µM was 110%.

With `COc1ccc(N2CCN(c3cc(O)c([N+](=O)[O-])cc3F)CC2)cc1` [Compound 6e, 4-Fluoro-5-[4-(4-methoxy-phenyl)-piperazin-1-yl]-2-nitro-phenol] as the compound, how does the viability at 24 h, 10 µM read?
The viability at 24 h, 10 µM was 104%.

Which viability at 24 h, 10 µM does the source give for `O=[N+]([O-])c1cc(F)c(N2CCN(c3ccc(Cl)c(Cl)c3)CC2)cc1O` [Compound 6j, 5-[4-(3,4-Dichloro-phenyl)-piperazin-1-yl]-4-fluoro-2-nitro-phenol] here?
Its viability at 24 h, 10 µM is 81%.

Same assay, conditions: human; Liver cells, hepatocytes (HepaRG); 50 µM; 24 h; vs DMSO vehicle

Which viability at 24 h, 50 µM does the source give for `O=[N+]([O-])c1cc(F)c(N2CCN(c3ccc(O)cc3)CC2)cc1O` [Compound 6c, 4-Fluoro-5-[4-(4-hydroxy-phenyl)-piperazin-1-yl]-2-nitro-phenol] here?
Its viability at 24 h, 50 µM is 101%.

Which viability at 24 h, 50 µM does the source give for `COc1ccc(N2CCN(c3cc(O)c([N+](=O)[O-])cc3F)CC2)cc1` [Compound 6e, 4-Fluoro-5-[4-(4-methoxy-phenyl)-piperazin-1-yl]-2-nitro-phenol] here?
Its viability at 24 h, 50 µM is 74%.

With `O=[N+]([O-])c1cc(F)c(N2CCN(c3ccc(Cl)c(Cl)c3)CC2)cc1O` [Compound 6j, 5-[4-(3,4-Dichloro-phenyl)-piperazin-1-yl]-4-fluoro-2-nitro-phenol] as the compound, how does the viability at 24 h, 50 µM read?
The viability at 24 h, 50 µM was 102%.

Same assay, conditions: human; Liver cells, hepatocytes (HepaRG); 100 µM; 24 h; vs DMSO vehicle

With `O=[N+]([O-])c1cc(F)c(N2CCN(c3ccc(O)cc3)CC2)cc1O` [Compound 6c, 4-Fluoro-5-[4-(4-hydroxy-phenyl)-piperazin-1-yl]-2-nitro-phenol] as the compound, how does the viability at 24 h, 100 µM read?
The viability at 24 h, 100 µM was 89%.

Which viability at 24 h, 100 µM does the source give for `COc1ccc(N2CCN(c3cc(O)c([N+](=O)[O-])cc3F)CC2)cc1` [Compound 6e, 4-Fluoro-5-[4-(4-methoxy-phenyl)-piperazin-1-yl]-2-nitro-phenol] here?
The viability at 24 h, 100 µM was 79%.

For `O=[N+]([O-])c1cc(F)c(N2CCN(c3ccc(Cl)c(Cl)c3)CC2)cc1O` [Compound 6j, 5-[4-(3,4-Dichloro-phenyl)-piperazin-1-yl]-4-fluoro-2-nitro-phenol], which viability at 24 h, 100 µM is on record?
The viability at 24 h, 100 µM was 108%.

System: not given
Assay: not given
Conditions: not given

For `O=[N+]([O-])c1cc(F)c(N2CCN(c3ccc(O)cc3)CC2)cc1O` [Compound 6c, 4-Fluoro-5-[4-(4-hydroxy-phenyl)-piperazin-1-yl]-2-nitro-phenol], which melting point is on record?
The melting point was 218 to 219 °C.

Which melting point does the source give for `COc1ccc(N2CCN(c3cc(O)c([N+](=O)[O-])cc3F)CC2)cc1` [Compound 6e, 4-Fluoro-5-[4-(4-methoxy-phenyl)-piperazin-1-yl]-2-nitro-phenol] here?
Its melting point is 202 to 204 °C.

For `O=[N+]([O-])c1cc(F)c(N2CCN(c3ccc(Cl)c(Cl)c3)CC2)cc1O` [Compound 6j, 5-[4-(3,4-Dichloro-phenyl)-piperazin-1-yl]-4-fluoro-2-nitro-phenol], which melting point is on record?
The melting point was 211 to 213 °C.

System: A-549 lung carcinoma cells
Assay: CellTiter-Glo luminescent cell viability (cytotoxicity) assay on lung cancer cells
Type: cell-based, human
Conditions: Homo sapiens, A549; Lung cancer cells (A-549); 0.1 µM; 24 h; vs DMSO vehicle
Procedure: as §1, §2, §3

Which viability at 0.1 µM does the source give for `O=[N+]([O-])c1cc(F)c(N2CCN(c3ccc(O)cc3)CC2)cc1O` [Compound 6c, 4-Fluoro-5-[4-(4-hydroxy-phenyl)-piperazin-1-yl]-2-nitro-phenol] here?
Its viability at 0.1 µM is 104%.

Which viability at 0.1 µM does the source give for `COc1ccc(N2CCN(c3cc(O)c([N+](=O)[O-])cc3F)CC2)cc1` [Compound 6e, 4-Fluoro-5-[4-(4-methoxy-phenyl)-piperazin-1-yl]-2-nitro-phenol] here?
Its viability at 0.1 µM is 101%.

For `O=[N+]([O-])c1cc(F)c(N2CCN(c3ccc(Cl)c(Cl)c3)CC2)cc1O` [Compound 6j, 5-[4-(3,4-Dichloro-phenyl)-piperazin-1-yl]-4-fluoro-2-nitro-phenol], which viability at 0.1 µM is on record?
Its viability at 0.1 µM is 98%.

Same assay, conditions: Homo sapiens, A549; Lung cancer cells (A-549); 1 µM; 24 h; vs DMSO vehicle

For `O=[N+]([O-])c1cc(F)c(N2CCN(c3ccc(O)cc3)CC2)cc1O` [Compound 6c, 4-Fluoro-5-[4-(4-hydroxy-phenyl)-piperazin-1-yl]-2-nitro-phenol], which viability at 1 µM is on record?
Its viability at 1 µM is 103%.

With `COc1ccc(N2CCN(c3cc(O)c([N+](=O)[O-])cc3F)CC2)cc1` [Compound 6e, 4-Fluoro-5-[4-(4-methoxy-phenyl)-piperazin-1-yl]-2-nitro-phenol] as the compound, how does the viability at 1 µM read?
The viability at 1 µM was 104%.

With `O=[N+]([O-])c1cc(F)c(N2CCN(c3ccc(Cl)c(Cl)c3)CC2)cc1O` [Compound 6j, 5-[4-(3,4-Dichloro-phenyl)-piperazin-1-yl]-4-fluoro-2-nitro-phenol] as the compound, how does the viability at 1 µM read?
The viability at 1 µM was 94%.

Same assay, conditions: Homo sapiens, A549; Lung cancer cells (A-549); 10 µM; 24 h; vs DMSO vehicle

With `O=[N+]([O-])c1cc(F)c(N2CCN(c3ccc(O)cc3)CC2)cc1O` [Compound 6c, 4-Fluoro-5-[4-(4-hydroxy-phenyl)-piperazin-1-yl]-2-nitro-phenol] as the compound, how does the viability at 10 µM read?
Its viability at 10 µM is 102%.

Which viability at 10 µM does the source give for `COc1ccc(N2CCN(c3cc(O)c([N+](=O)[O-])cc3F)CC2)cc1` [Compound 6e, 4-Fluoro-5-[4-(4-methoxy-phenyl)-piperazin-1-yl]-2-nitro-phenol] here?
The viability at 10 µM was 96%.

With `O=[N+]([O-])c1cc(F)c(N2CCN(c3ccc(Cl)c(Cl)c3)CC2)cc1O` [Compound 6j, 5-[4-(3,4-Dichloro-phenyl)-piperazin-1-yl]-4-fluoro-2-nitro-phenol] as the compound, how does the viability at 10 µM read?
The viability at 10 µM was 65%.

Same assay, conditions: Homo sapiens, A549; Lung cancer cells (A-549); 50 µM; 24 h; vs DMSO vehicle

Which viability at 50 µM does the source give for `O=[N+]([O-])c1cc(F)c(N2CCN(c3ccc(O)cc3)CC2)cc1O` [Compound 6c, 4-Fluoro-5-[4-(4-hydroxy-phenyl)-piperazin-1-yl]-2-nitro-phenol] here?
Its viability at 50 µM is 94%.

Which viability at 50 µM does the source give for `COc1ccc(N2CCN(c3cc(O)c([N+](=O)[O-])cc3F)CC2)cc1` [Compound 6e, 4-Fluoro-5-[4-(4-methoxy-phenyl)-piperazin-1-yl]-2-nitro-phenol] here?
Its viability at 50 µM is 71%.

Which viability at 50 µM does the source give for `O=[N+]([O-])c1cc(F)c(N2CCN(c3ccc(Cl)c(Cl)c3)CC2)cc1O` [Compound 6j, 5-[4-(3,4-Dichloro-phenyl)-piperazin-1-yl]-4-fluoro-2-nitro-phenol] here?
The viability at 50 µM was 62%.
